According to US5614370A, “Assay to identify human C5a antagonists and agonists” (Merck & Co., Inc., priority 1994, dated 1997):
Like-named read-outs stand apart in the source and are kept apart here. Non-standard residues stand in square brackets, D forms with d. Residues, ends and D or L forms follow the SMILES beside them. Cha = N[C@@H](CC1CCCCC1)C(=O)O

Legend:
C5a receptor [1] = target: T1, C5a receptor (Homo sapiens, UniProt P21730); format: binding; conditions: 293 cells present, FIG. 4A; PMN membranes
T1 construct: followed by a 20 μL aliquot of neutrophil membrane; endogenous in cells
T1 sequence (P21730 1-350): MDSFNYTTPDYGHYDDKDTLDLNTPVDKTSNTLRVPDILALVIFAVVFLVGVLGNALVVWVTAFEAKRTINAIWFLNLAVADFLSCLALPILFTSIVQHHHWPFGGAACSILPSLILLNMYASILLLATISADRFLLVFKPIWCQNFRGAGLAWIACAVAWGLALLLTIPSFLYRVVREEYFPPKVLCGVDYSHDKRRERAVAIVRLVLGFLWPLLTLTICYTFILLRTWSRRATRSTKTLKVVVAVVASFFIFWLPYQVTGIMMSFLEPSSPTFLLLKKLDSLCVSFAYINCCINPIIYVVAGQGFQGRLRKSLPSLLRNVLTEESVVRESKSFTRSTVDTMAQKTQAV
From the text: FIGS. 4A, 4B and 4C. (A) Competition binding curve using ^125 I-labeled intact C5a and unlabeled C013 peptide in the presence and absence of protease secreting cells.
(B) Competition binding curve using ^125 I-labeled intact C5a and unlabeled C028 peptide in the presence and absence of protease secreting cells.
(C) Competition binding curve using ^125 I-labeled intact C5a and unlabeled C013 and C028 peptides in the presence and absence of protease secreting cells in the presence or absence of protease inhibitor.
We therefore attempted, and succeeded, to improve on this radioligand by identifying a compound with lower non-specific binding, and higher binding affinity. We developed the compound C013, ^125 I-Tyr Phe Lys Ala Cha Gly Leu dPhe Arg, SEQ.ID:2:, which had about 30-fold the binding affinity of ^125 I-C009.

C5a receptor [2] = conditions: cited from earlier work
C5a receptor [3] = conditions: literature; cited from earlier work

CC(C)C[C@H](NC(=O)CNC(=O)[C@H](CC1CCCCC1)NC(=O)[C@H](C)NC(=O)[C@H](CCCCN)NC(=O)[C@@H](N)Cc1ccccc1)C(=O)N[C@H](Cc1ccccc1)C(=O)N[C@@H](CCCNC(=N)N)C(=O)O [C013a] (H-FKA[Cha]GL[dF]R-OH)
loss of potency in displacement of 125I-C5a in the presence of 293 cells (C5a receptor [1]): about 100 fold

C-terminal C5a octapeptide: C-terminal C5a octapeptide which retained receptor binding activity (Kawai et al.) (HKDMQLGR; C5a anaphylatoxin; UniProt P01031 744-751, looked up, fragment)
C5a binding in words (C5a receptor [2]; literature): retained receptor binding activity

natural C-terminus of C5a: synthetic peptide consisting of the C-terminal eight amino acids of C5a (HKDMQLGR; C5a anaphylatoxin; UniProt P01031 744-751, looked up, fragment) [reference compound]
Ki (C5a receptor [2]; C-terminal eight residues of C5a, read-out: Ki, inhibition of C5a binding): 300 µM | agonist properties in words (C5a receptor [3]): has agonist properties

B1: Phe for His67 substituted C5a peptide: Phe for His67 substituted C5a peptide (Mollison et al.) (peptide, UniProt P01031 678-751, looked up, variant H67F)
C5a anaphylatoxin: TLQKKIEEIAAKYKHSVVKKCCYDGACVNNDETCEQRAARISLGPRCIKAFTECCVVASQLRANISFKDMQLGR
modifications: C5a anaphylatoxin
Ki (C5a receptor [2]; literature, read-out: Ki for C5a binding): 0.26 µM
